# Patent US20190314436A1, “PHARMACEUTICAL COMPOSITION FOR PREVENTION OR TREATMENT OF LIVER CANCER AND HEALTH FUNCTIONAL FOOD” (KOREA BIO MEDICAL SCIENCE INSTITUTE CO., LTD, priority 2016, published 2019)
# What was measured:
# [1] = system: Hepa1-6 hepatocellular carcinoma; assay: Orthotopic HCC model, Hepa1-6 via liver portal vein; format: in vivo, C57/BL6 mouse; settings: WSY-1 100 mpk, sorafenib 30 mpk, oral daily
# Method: In the present study, based on results of the primary in vivo efficacy validation experiment and preliminary experiment, the following experiment conditions were set up and the secondary validation experiment was implemented.
# Administered cell/administration route: 5×10^5 Hepa1-6-GFP cells/liver portal vein
# Dose/administration route/dosing frequency: WSY-1 100 mpk, sorafenib 30 mpk/oral administration/daily
# 5×10^5 Hepa1-6GFP cells were administered to the liver portal vein of each 6-week-old C57/BL6 mouse. 3 days later, the mice were randomly grouped, followed by administration of WSY-1 and sorafenib for 3 weeks.
# During 3 weeks administration period, death (mortality) due to tumorigenesis was induced in the following experimental groups. After termination of the administration, survived mice were sacrificed and analyzed for anti-cancer effects.
# [2] = system: HCCLM3 cells; assay: Cell death in hyper-metastatic HCC cell line; format: cell-based; settings: HCCLM3, 16 μM, 48 hours
# Source text: By treatment of HCCLM3 cells using WSY-1 or WSY-3 extract in ethanol to identify cell death effects, in vitro anti-cancer effects of the natural extracts on cell lines having different sorafenib sensitivities were investigated.
# [3] = system: HCCLM3 hepatocellular carcinoma; assay: Orthotopic HCC model, HCCLM3 via liver portal vein; format: in vivo, Balb/c nu/nu mouse; settings: 30 mpk oral daily, 8 weeks
# Source text: Establishment of Hepatocellular Carcinoma (HCC) in Small Animal Models
# In order to induce HCC in a small animal model, a method of injecting chemicals such as DEN or a method of directly injecting HCC cells into the model is used. Although DEN treatment is convenient in view of experiment, this process entails a disadvantage in that a long period of time (about 50 weeks) is required for generation of tumors (‘tumorigenesis’). Therefore, in order to efficiently verify in vivo anticancer effects of natural extracts for a short period of time, an orthotopic implantation model of directly injecting HCC cells into the liver of a mouse was implemented.
# The orthotopic implantation model is a method of inducing formation of cancer in liver tissues by directly injecting HCC cell lines such as Huh7 or HCCLM3 into hepatic portal vein or mesenchyma (liver lobe) of the mouse, and takes about 8 weeks to form tumors, which is considerably shorter than DEN, thus being properly used.
# Efficacies of the Ulmi cortex extract (WSY-0), Nardostachys jatamansi extract (WSY-1), Lophatheri Herba extract (WSY-3) or Torilis Japonica extract (WSY-37) on HCC formation and suppression thereof have been validated through liver gross, H & E staining and serum analysis. […]
# [4] = system: Huh7 cells; assay: MTT assay, liver cancer growth inhibition / cell death; format: cell-based; settings: 48 hours
# Method: Hepatoma cell proliferation inhibitory efficacies of the Ulmi cortex extract (WSY-0), Nardostachys jatamansi extract (WSY-1), Lophatheri Herba extract (WSY-3) and Torilis japonica extract (WSY-37) in target cells or mice treated with the same were validated by MTT assay and effective concentrations thereof were determined.
# In vitro liver cancer growth inhibitory abilities of four (4) natural products (WSY-0, WSY-1, WSY-3, and WSY-37) were verified by the MTT assay.
# With respect to the 4 types of natural products, total 8 types of extracts were prepared through hydrothermal extraction and ethanol extraction, respectively. These extracts were identified to have in vitro liver cancer growth inhibitory ability in 5 types of liver cancer cell lines (Huh7, HepG2, Hep3B, PLC/PRF5, and SK-hep1).
# Further, in treatment using each of three ethanol extracts in an amount of 200 μg/mL except WSY-37, the cell growth inhibitory ability was identified in 4 types of liver cancer cell lines except Hep G2 cells.
# When treating Huh7 cells with sorafenib for 48 hours, it was identified that about 60% cell death was induced with 2 μM of sorafenib and about 80% cell death was induced with 4 μM of sorefenib, respectively (see FIG. 1).
# [5] = system: liver cancer; settings: cited from earlier work
smiles,measurement,setting,value
CNC(=O)c1cc(Oc2ccc(NC(=O)Nc3ccc(Cl)c(C(F)(F)F)c3)cc2)ccn1 [sorafenib],death (mortality) due to tumorigenesis,[1]; 3 weeks administration,4 out of 13
same,liver weight/body weight vs mice injected with Hepa1-6 cells only,[1]; 3 weeks,significantly decreased
same,apoptotic effects,[2],≤ 50%
same,liver weight/body weight vs mice with HCCLM3 only,[3],decreased
same,cell death,"[4]; Huh7, 2 μM",about 60%
same,cell death,"[4]; Huh7, 4 μM",about 80%
same,patients with partial response,"[5]; 137 patients, Phase 2 clinical trials",≤ 5%
same,extension of life compared to placebo dose group,[5]; orally administered,~3 months
